Activity calls are given as the source filed them. The calls are words filed in the database; no cut-off is given here.
Key:
SK-MEL-2 [1] = assay: Cytotoxicity against human SK-MEL-2 cells assessed as cell growth at 0.01 uM after 48 hrs by sulforhodamine B assay relative to control; type: functional; conditions: SK-MEL-2, 48 h, read-out: Activity
HOP-92 [2] = assay: Cytotoxicity against human HOP92 cells assessed as cell growth at 0.1 uM after 48 hrs by sulforhodamine B assay relative to control; type: functional; conditions: HOP-92, 48 h, read-out: Activity
HOP-92 [3] = assay: Cytotoxicity against human HOP92 cells assessed as cell growth at 1 uM after 48 hrs by sulforhodamine B assay relative to control; type: functional; conditions: HOP-92, 48 h, read-out: Activity
LOX IMVI [4] = assay: Cytotoxicity against human LOXIMVI cells assessed as cell growth at 1 uM after 48 hrs by sulforhodamine B assay relative to control; type: functional; conditions: read-out: Activity
CAKI-1 [5] = assay: Cytotoxicity against human Caki1 cells assessed as cell growth at 10 uM after 48 hrs by sulforhodamine B assay relative to control; type: functional; conditions: CAKI-1, 48 h, read-out: Activity
HOP-92 [6] = assay: Cytotoxicity against human HOP92 cells assessed as cell growth at 0.01 uM after 48 hrs by sulforhodamine B assay relative to control; type: functional; conditions: HOP-92, 48 h, read-out: Activity
SK-MEL-2 [7] = assay: Cytotoxicity against human SK-MEL-2 cells assessed as cell growth at 0.1 uM after 48 hrs by sulforhodamine B assay relative to control; type: functional; conditions: SK-MEL-2, 48 h, read-out: Activity
SK-MEL-2 [8] = assay: Cytotoxicity against human SK-MEL-2 cells assessed as cell growth at 1 uM after 48 hrs by sulforhodamine B assay relative to control; type: functional; conditions: SK-MEL-2, 48 h, read-out: Activity
LOX IMVI [9] = assay: Cytotoxicity against human LOXIMVI cells assessed as cell growth at 0.1 uM after 48 hrs by sulforhodamine B assay relative to control; type: functional; conditions: read-out: Activity
HOP-92 [10] = assay: Cytotoxicity against human HOP92 cells assessed as cell growth at 10 uM after 48 hrs by sulforhodamine B assay relative to control; type: functional; conditions: HOP-92, 48 h, read-out: Activity
MCF7 [11] = assay: Downregulation of Akt protein expression in human MCF7 cells at 2 uM after 24 hrs by Western blot analysis; type: functional, cell-based
MCF7 [12] = assay: Downregulation of mTOR protein expression in human MCF7 cells at 2 uM after 24 hrs by Western blot analysis; type: functional, cell-based
SK-MEL-2 [13] = assay: Cytotoxicity against human SK-MEL-2 cells assessed as cell growth at 100 uM after 48 hrs by sulforhodamine B assay relative to control; type: functional; conditions: SK-MEL-2, 48 h, read-out: Activity
LOX IMVI [14] = assay: Cytotoxicity against human LOXIMVI cells assessed as cell growth at 100 uM after 48 hrs by sulforhodamine B assay relative to control; type: functional; conditions: read-out: Activity
MCF7 [15] = assay: Upregulation of PTEN protein expression in human MCF7 cells at 2 uM after 24 hrs by Western blot analysis; type: functional, cell-based
CAKI-1 [16] = assay: Cytotoxicity against human Caki1 cells assessed as cell growth at 1 uM after 48 hrs by sulforhodamine B assay relative to control; type: functional; conditions: CAKI-1, 48 h, read-out: Activity
CAKI-1 [17] = assay: Cytotoxicity against human Caki1 cells assessed as growth inhibition after 48 hrs by sulforhodamine B assay; type: functional; conditions: CAKI-1, 48 h
HOP-92 [18] = assay: Cytotoxicity against human HOP92 cells assessed as growth inhibition after 48 hrs by sulforhodamine B assay; type: functional; conditions: HOP-92, 48 h
CAKI-1 [19] = assay: Cytotoxicity against human Caki1 cells assessed as cell growth at 0.1 uM after 48 hrs by sulforhodamine B assay relative to control; type: functional; conditions: CAKI-1, 48 h, read-out: Activity
HOP-92 [20] = assay: Cytotoxicity against human HOP92 cells assessed as cell growth at 100 uM after 48 hrs by sulforhodamine B assay relative to control; type: functional; conditions: HOP-92, 48 h, read-out: Activity
LOX IMVI [21] = assay: Cytotoxicity against human LOXIMVI cells assessed as cell growth at 0.01 uM after 48 hrs by sulforhodamine B assay relative to control; type: functional; conditions: read-out: Activity
CAKI-1 [22] = assay: Cytotoxicity against human Caki1 cells assessed as cell growth at 0.01 uM after 48 hrs by sulforhodamine B assay relative to control; type: functional; conditions: CAKI-1, 48 h, read-out: Activity
CAKI-1 [23] = assay: Cytotoxicity against human Caki1 cells assessed as cell growth at 100 uM after 48 hrs by sulforhodamine B assay relative to control; type: functional; conditions: CAKI-1, 48 h, read-out: Activity
SK-MEL-2 [24] = assay: Cytotoxicity against human SK-MEL-2 cells assessed as cell growth at 10 uM after 48 hrs by sulforhodamine B assay relative to control; type: functional; conditions: SK-MEL-2, 48 h, read-out: Activity
MCF7 [25] = assay: Downregulation of PI3K mRNA expression in human MCF7 cells at 2 uM after 48 hrs by qRT-PCR analysis; type: functional, cell-based
MCF7 [26] = assay: Induction of apoptosis in human MCF7 cells assessed as necrotic cells at 2 uM after 24 hrs by Annexin-V FITC/propidium iodide staining-based FACS analysis (reference value: 0.2%); type: functional
MCF7 [27] = assay: Cell cycle arrest in human MCF7 cells assessed as accumulation at S phase at 2 uM after 24 hrs by flow cytometric analysis (reference value: 79.1%); type: functional
MCF7 [28] = assay: Induction of apoptosis in human MCF7 cells assessed as early apoptotic cells at 2 uM after 24 hrs by Annexin-V FITC/propidium iodide staining-based FACS analysis (reference value: 0.5%); type: functional
MCF7 [29] = assay: Induction of intrinsic apoptosis in human MCF7 cells assessed as effect on mitochondrial membrane depolarization by measuring mean fluorescence intensity at 2 uM after 18 hrs by DiOC6 staining-based FACS analysis (reference value: 463); type: functional
MCF7 [30] = assay: Cell cycle arrest in human MCF7 cells assessed as accumulation at G2/M phase at 2 uM after 48 hrs by flow cytometric analysis (reference value: 8.1%); type: functional

Row | Compound | growth at 0.01 µM (SK-MEL-2 [1]) [%] | growth at 0.1 µM (HOP-92 [2]) [%] | growth at 1 µM (HOP-92 [3]) [%] | growth at 1 µM (LOX IMVI [4]) [%] | growth at 10 µM (CAKI-1 [5]) [%] | growth at 0.01 µM (HOP-92 [6]) [%] | growth at 0.1 µM (SK-MEL-2 [7]) [%] | growth at 1 µM (SK-MEL-2 [8]) [%] | growth at 0.1 µM (LOX IMVI [9]) [%] | growth at 10 µM (HOP-92 [10]) [%] | Activity (MCF7 [11]) | Activity (MCF7 [12]) | growth at 100 µM (SK-MEL-2 [13]) [%] | growth at 100 µM (LOX IMVI [14]) [%] | Activity (MCF7 [15]) | growth at 1 µM (CAKI-1 [16]) [%] | LC50 (CAKI-1 [17]) [µM] | TGI (HOP-92 [18]) [µM] | growth at 0.1 µM (CAKI-1 [19]) [%] | growth at 100 µM (HOP-92 [20]) [%] | further results
1 | COc1ccc(C(=O)/C=C/c2cc(-c3cc(OC)c(OC)c(OC)c3)n[nH]2)cc1 | 92 | 83 | 53 | 85 | -17 | 87 | 90 | 97 | 93 | -56 | Active | Active | -50 | -32 | Active | 89 | > 100 | 3.04 | 93 | -36 | growth at 0.01 µM (LOX IMVI [21]): 95%; growth at 0.01 µM (CAKI-1 [22]): 95%; growth at 100 µM (CAKI-1 [23]): 1%; growth at 10 µM (SK-MEL-2 [24]): 21%; Activity (MCF7 [25]): Active
2 | COc1cc(C(=O)/C=C/c2cc(-c3cc(OC)c(OC)c(OC)c3)n[nH]2)cc(OC)c1OC | 104 | 68 | 1 | 82 | 4 | 86 | 111 | 97 | 101 | -67 | Active | Active | -96 | -95 | Active | 82 | 35.5 | 1.02 | 89 | -95 | Activity (MCF7 [26]): 1.1%; Activity (MCF7 [27]): 73.1%; Activity (MCF7 [28]): 3.1%; TGI (CAKI-1 [17]): 10.9 µM; CC50 (HOP-92 [18]; read-out: LC50 (the source's name)): 5.54 µM; Flu intensity (MCF7 [29]): 637; growth at 0.01 µM (LOX IMVI [21]): 102%; growth at 0.01 µM (CAKI-1 [22]): 91%; growth at 100 µM (CAKI-1 [23]): -94%; Activity (MCF7 [30]): 4.96%; growth at 10 µM (SK-MEL-2 [24]): -63%; Activity (MCF7 [25]): Active
